# Experimental data taken from patent US7307101B2, “Use of 20-HETE synthesizing enzyme inhibitors as therapy for cerebral vascular disease” (MCW Research Foundation, Inc., priority 2000, dated 2007).
# Columns and labels:
# [1] = system: rat 20-HETE synthesizing enzyme; assay: Synthesis of 20-HETE in rat renal microsomes ([14C]-AA); type: biochemical; conditions: 1.5 nM, lowest dose tested
# Experimental: Microsomes were prepared by differential centrifugation as previously described. […] The reactions were terminated by acidification to pH 3.5 using 0.1 mol/L formic acid and extracted with ethyl acetate. Metabolites were separated using a 25 cm×2 mm i.d. (Supelco Inc., Bellefonte, Pa.) C18-reverse phase HPLC column and a linear elution gradient ranging from acetonitrile:water: acetic acid (50/50/0.1) to acetonitrile:acetic acid (100/0.1) over a 40 min period. The radioactive products were monitored using a radioactive flow detector (Model 120, Radiomatic Instrument Co., Tampa, Fla.).
# [2] = HET0016 levels in plasma and brain; type: in vivo; conditions: rat; for concentration at 1 h: iv
# Experimental: Measurement of HET0016 levels in plasma and brain. […] After a one hour equilibration period, the rats were anesthesized with pentobarbital and a blood sample was collected from the jugular vein. The rats were then sacrificed and the brain was removed, weighed and homogenized in 3 volumes of 0.9% NaCl solution using a Physcotron homogenizer (Nition-Ikakikai, Chiba, Japan). […] The samples were mixed with 1 ml of acetonitrile, centrifuged and 20 μl of the clear supernatant was injected into the LC/MS. The samples were separated on a 200×4.6 mm Capcellpak UG 120 ODS column (Shiseido Corp., Tokyo, Japan) and eluted with acetonitrile:water (72/28). Peaks were monitored using a Sciex API 3000 mass spectrometer (Perkin Elmer Sciex, Ontario, Canada) tuned to detect the precursor to product transitions specific for each analyte.
structure (smiles),measurement,setting,value
"CCCCc1ccc(N=CNO)c(C)c1 [HET0016, N-hydroxy-N′-(4-butyl-2-methylphenyl)-formamidine]",inhibition of rat 20-HETE synthesizing enzymes,[1],about 20%
same,concentration at 1 h,"[2]; brain, 1 hr after i.v. 10 mg/kg",7.2 µM
same,concentration at 1 h,"[2]; brain, 1 hr after i.v. 10 mg/kg, n=3",1490 ng/g
same,concentration at 1 h,"[2]; plasma, 1 hr after i.v. 10 mg/kg, n=3",0.57 ± 0.09 µg/mL
same,HET0016 level in plasma (molar),[2]; 1 hr after i.v. 10 mg/kg,2.8 µM
same,concentration at 1 h,"[2]; plasma, one hour after i.v. 10 mg/kg body weight",2.8 µM
